Laboratory results as given in ChEMBL document CHEMBL3045673, “Synthesis of some novel 2-substituted benzoxazoles as anticancer, antifungal, and antimicrobial agents” (2008).
The source made the active and inactive calls. The rule behind the calls is not given here.

Assays:
[1] = test system: Aspergillus flavus; assay: Antifungal activity against Aspergillus flavus at 50 ug/ml after 48 hr by agar plate diffusion method; type: functional
[2] = test system: HepG2; assay: Cytotoxicity against Homo sapiens (human) HepG2 cells by MTT assay; type: functional, cell-based
[3] = test system: Aspergillus niger; assay: Antifungal activity against Aspergillus niger at 50 ug/ml after 48 hr by agar plate diffusion method; type: functional
[4] = test system: Pseudomonas aeruginosa; assay: Antibacterial activity against Pseudomonas aeruginosa at 10 ug/ml after 24 hr by disk diffusion method; type: functional; conditions: read-out: DIZ
[5] = test system: Staphylococcus aureus; assay: Antibacterial activity against Staphylococcus aureus at 10 ug/ml after 24 hr by disk diffusion method; type: functional; conditions: read-out: DIZ
[6] = test system: Klebsiella pneumoniae; assay: Antibacterial activity against Klebsiella pneumoniae at 10 ug/ml after 24 hr by disk diffusion method; type: functional; conditions: read-out: DIZ
[7] = test system: HeLa; assay: Cytotoxicity against Homo sapiens (human) HeLa cells by MTT assay; type: functional, cell-based
[8] = test system: WiDr; assay: Cytotoxicity against Homo sapiens (human) WiDr cells by MTT assay; type: functional, cell-based
[9] = test system: MCF7; assay: Cytotoxicity against Homo sapiens (human) MCF7 cells by MTT assay; type: functional, cell-based

## COc1cc(/C=C(\C#N)c2nc3cc(F)ccc3o2)cc(OC)c1OC
[1]
  inhibition at 50 µg/mL: 90%
[2]
  Activity: Active
[3]
  inhibition at 50 µg/mL: 95%
[4]
  zone of inhibition at 10 µg/mL: 20 mm
[5]
  zone of inhibition at 10 µg/mL: 20 mm
[6]
  zone of inhibition at 10 µg/mL: 15 mm
[7]
  Activity: Active
[8]
  Activity: Active
[9]
  Activity: Active

## N#C/C(=C\c1ccc(O)cc1)c1nc2cc(Cl)ccc2o1
[1]
  inhibition at 50 µg/mL: 60%
[2]
  Activity: Active
[3]
  inhibition at 50 µg/mL: 50%
[4]
  zone of inhibition at 10 µg/mL: 10 mm
[5]
  zone of inhibition at 10 µg/mL: 10 mm
[6]
  zone of inhibition at 10 µg/mL: 10 mm
[7]
  Activity: Active
[8]
  Activity: inactive
[9]
  Activity: inactive

## N#CC(=C1CCCC1)c1nc2cc(Cl)ccc2o1
[1]
  inhibition at 50 µg/mL: 60%
[2]
  Activity: Active
[3]
  inhibition at 50 µg/mL: 75%
[4]
  zone of inhibition at 10 µg/mL: 10 mm
[5]
  zone of inhibition at 10 µg/mL: 15 mm
[6]
  zone of inhibition at 10 µg/mL: 10 mm
[7]
  Activity: Active
[8]
  Activity: Active
[9]
  Activity: Active

## N#C/C(=N\Nc1ccc(Br)cc1)c1nc2cc(Cl)ccc2o1
[2]
  Activity: Active
[4]
  zone of inhibition at 10 µg/mL: 10 mm
[5]
  zone of inhibition at 10 µg/mL: 10 mm
[6]
  zone of inhibition at 10 µg/mL: 10 mm
[7]
  Activity: Active
[8]
  Activity: inactive
[9]
  Activity: Active

## COc1ccc(N/N=C(\C#N)c2nc3cc(Cl)ccc3o2)cc1
[1]
  inhibition at 50 µg/mL: 50%
[2]
  Activity: Active
[3]
  inhibition at 50 µg/mL: 65%
[4]
  zone of inhibition at 10 µg/mL: 5 mm
[5]
  zone of inhibition at 10 µg/mL: 10 mm
[6]
  zone of inhibition at 10 µg/mL: 5 mm
[7]
  Activity: Active
[8]
  Activity: Active
[9]
  Activity: Active

## N#C/C(=N\Nc1ccccc1)c1nc2cc(Cl)ccc2o1
[2]
  Activity: Active
[4]
  zone of inhibition at 10 µg/mL: 10 mm
[5]
  zone of inhibition at 10 µg/mL: 10 mm
[6]
  zone of inhibition at 10 µg/mL: 10 mm
[7]
  Activity: Active
[8]
  Activity: inactive
[9]
  Activity: inactive

## COc1ccc(/C=C(\C#N)c2nc3cc(Cl)ccc3o2)cc1
[1]
  inhibition at 50 µg/mL: 65%
[2]
  Activity: Active
[3]
  inhibition at 50 µg/mL: 65%
[4]
  zone of inhibition at 10 µg/mL: 10 mm
[5]
  zone of inhibition at 10 µg/mL: 5 mm
[6]
  zone of inhibition at 10 µg/mL: 10 mm
[7]
  Activity: Active
[8]
  Activity: Active
[9]
  Activity: Active

## N#C/C(=N\Nc1ccc(Cl)cc1)c1nc2cc(Cl)ccc2o1
[1]
  inhibition at 50 µg/mL: 65%
[2]
  Activity: inactive
[3]
  inhibition at 50 µg/mL: 70%
[4]
  zone of inhibition at 10 µg/mL: 10 mm
[5]
  zone of inhibition at 10 µg/mL: 5 mm
[6]
  zone of inhibition at 10 µg/mL: 10 mm
[7]
  Activity: inactive
[8]
  Activity: inactive
[9]
  Activity: Active

## N#C/C(=C\c1ccccc1)c1nc2cc(Cl)ccc2o1
[1]
  inhibition at 50 µg/mL: 60%
[2]
  Activity: inactive
[3]
  inhibition at 50 µg/mL: 65%
[4]
  zone of inhibition at 10 µg/mL: 10 mm
[5]
  zone of inhibition at 10 µg/mL: 10 mm
[6]
  zone of inhibition at 10 µg/mL: 10 mm
[7]
  Activity: inactive
[8]
  Activity: inactive
[9]
  Activity: Active

## COc1cc(/C=C(\C#N)c2nc3cc(Cl)ccc3o2)cc(OC)c1OC
[1]
  inhibition at 50 µg/mL: 85%
[2]
  Activity: Active
[3]
  inhibition at 50 µg/mL: 80%
[4]
  zone of inhibition at 10 µg/mL: 15 mm
[5]
  zone of inhibition at 10 µg/mL: 15 mm
[6]
  zone of inhibition at 10 µg/mL: 10 mm
[7]
  Activity: Active
[8]
  Activity: Active
[9]
  Activity: Active

## N#CC(=C1CCCCC1)c1nc2cc(Cl)ccc2o1
[1]
  inhibition at 50 µg/mL: 75%
[2]
  Activity: Active
[3]
  inhibition at 50 µg/mL: 60%
[4]
  zone of inhibition at 10 µg/mL: 10 mm
[5]
  zone of inhibition at 10 µg/mL: 10 mm
[6]
  zone of inhibition at 10 µg/mL: 5 mm
[7]
  Activity: Active
[8]
  Activity: Active
[9]
  Activity: inactive
